Measurements reported in patent EP0148660A1, “Beta-carboline derivatives, process for their preparation and medicaments containing them” (Etablissement Public dit: CENTRE NATIONAL DE LA RECHERCHE …, priority 1983, dated 1985).

Tests used:
[1] = molecular target: récepteur des benzodiazépines; test: Displacement of 3H-flunitrazepam from its receptor in rat cortex tissue (in vitro); format: binding; conditions: for IC50: 3H-flunitrazépam 4 nM, cortex du Rat, 0°, 60 mn, pH 7,4
Excerpt: Pour déterminer l'activité pharmacologique des molécules de cette invention, leur affinité pour le récepteur des benzodiazépines a d'abord été étudiée. Cette affinité est déterminée par l'aptitude de la molécule à déplacer une benzodiazépine radioactive (le flunitrazépam tritié) de son récepteur.
Ce pouvoir de déplacement de la molécule est indiqué par son IC50, c'est-à-dire la concentration du produit nécessaire pour déplacer 50 % des liaisons spécifiques du ^3H-flunitrazépam avec son récepteur, à partir de tissus préparés du cerveau du Rat.
Pour ces essais in vitro, il s'agit d'incuber à 0° pour 60 mn une suspension de tissus provenant du cortex du Rat (= 10 mg de tissu par échantillon) dans un milieu tamponné (pH 7,4, 0,05 M Tris-HCl) en présence d'une concentration fixe de ^3H-flunitrazépam (= 4 nM, 89 Ci/mmole) et d'une concentration variable du produit (10^-3 à 10^-9 M). La suspension est ensuite filtrée et la radioactivité restant sur le filtre est déterminée par scintillation. L'information obtenuepermet de dessiner une courbe de déplacement contre la concentration du produit et de calculer l'IC50 du produit.

[2] = system: souris; test: Convulsions induced by pentylenetetrazol (PTZ) in mice; format: in vivo; conditions: PTZ 70 mg/kg s.c.
Protocol: 40 souris "Swiss", d, 30 g recoivent 70 mg/kg s.c. de PTZ. Les souris sont divisées en 4 lots : 1 lot contrôle, 1 lot reçoit 10 mg/kg s.c. de méthyl carbamate, 5 minutes avant le PTZ, 1 lot la même dose de méthyl carbamate 15 minutes avant, et le dernier lot une dose de 1 mg/kg de méthyl carbamate 15 minutes avant. 60 % à 80 % des souris présentent des convulsions dans les 4 lots sans différences statistiquement significatives entre les lots.

[3] = system: souris; test: Antagonism of convulsions induced by méthyl β-carboline in mice; format: in vivo; conditions: 1 mg/kg s.c. 5 minutes before méthyl β-carboline 1 to 10 mg/kg s.c.
Protocol: Par contre, cette molécule antagonise les effets convulsivants induits par un agoniste inverse de la méthyl-β-carboline.
100 souris (30 g, ♂) sont traitées par des doses croissantes de méthyl B-carboline de 1 mg à 10 mg/kg s.c. La moitié des souris a été prétraitée par 1 mg/kg de méthyl carbamate s.c. 5 minutes avant l'injection de méthyl β-carboline.

[4] = system: souris; test: Antagonism of the anticonvulsant action of diazepam (PTZ) in mice; format: in vivo; conditions: PTZ 70 mg/kg s.c.; diazépam 1 mg/kg s.c. 25 minutes before, carbamate 10 mg/kg 15 minutes before; 80 % of controls convulse
Protocol: ① Absence d'effets antagonistiques sur l'action anticonvulsivante du diazépam :
20 souris (30 g, ♂) ont été traitées avec 70 mg/kg s.c. de PTZ. Une moitié a servi de contrôle; l'autre moitié a reçu 1 mg/kg s.c. de diazépam 25 minutes avant le PTZ et 10 mg/kg de carbamate 15 minutes avant le PTZ.

[5] = system: souris; test: Blockade of diazepam-induced sedation, rotarod in mice; format: in vivo; conditions: 10 mg/kg s.c.; diazépam 2 mg/kg s.c.
Protocol: ②. Blocage de la sédation induite par le diazépam :
20 souris (30 g, ♂) ont été entraînées sur le rotarod (bâton de 2,5 cm 0 tournant à 4 rev/mn) pendant 5 minutes. Les souris entraînées seront utilisées si, lors du test précédant l'injection, elles restent 1 minute sans tomber du bâton. Les souris reçoivent toutes 2 mg/kg s.c. de diazépam et sont testées toutes les 10 minutes. Le pourcentage de souris restant 1 minute sur le bâton est indiqué en ordonnée de la figure.

[6] = system: souris; test: Conflict test (Skinner box), anxiolytic effect of diazepam in mice; format: in vivo
Protocol: ③. Absence d'effet antagoniste sur les effets anxiolytiques du diazépam : • 9 souris ont été entraînées dans un test de conflit décrit par PRADO et al. (Nature 301, 64-66, 1983). En bref les animaux privés de nourriture sont soumis à des séances quotidiennes de 15 minutes dans une boîte de Skinner. Ces sessions comprennent successivement : 5 mn sans conflit (où la souris reçoit une boulette de nourriture chaque fois qu'elle appuie sur la pédale), 5 mn de conflit (où l'appui sur la pédale entraîne à la fois la délivrance d'une boulette et un choc électrique léger), 5 mn sans conflit. Les performances des souris (nombre d'appuis/mn) baissent durant les phases de conflit.

[7] = system: récepteur des benzodiazépines; test: In vivo displacement of tritiated flunitrazepam in mouse brain regions; set-up: species or system souris; conditions: for flunitrazépam tritié déplacé: 10 mg/kg; for DE50 (dose effective pour déplacer 50 % du flunitrazépam tritié): s.c.
Protocol: Ceci est démontré par des tests de déplacement du flunitrazépam tritié par le méthyl β-carbamate invivo.
200 µCi/kg de flunitrazépam tritié sont injectées i.v. chez la souris. Après 10 minutes, une dose connue du méthyl β-carbamate (allant de 2,5 mg/kg jusqu'à 10 mg/kg) est injectée s.c. et 10 minutes plus tard, l'animal est sacrifié. Le cerveau est rapidement disséqué. Le cervelet, le cortex et l'hippocampe sont isolés et broyés séparément et ensuite filtrés. La quantité de radio-activité restant sur le filtre est inversement proportionnelle au pouvoir de déplacement du méthyl β-carbamate.

[8] = system: Babouin photosensible; test: Photosensitive baboon, intermittent light stimulation (SLI); format: in vivo
Excerpt: Cette molécule appartient à la classe des agonistes inverses. Elle provoque des convulsions. Le modèle utilisé est le Babouin photosensible. Sur ce modèle, l'application de stimulation lumineuse intermittente (SLI) par l'intermédiaire d'une lampe stroboscopique provoque des manifestations épileptiques d'amplitude variable. Suivant l'intensité de leur réponse, les animaux sont classés de 0 à + 4.
2 animaux PP 86 et 88 ont été utilisés. Le 86 est + 3 au bout de 30 secondes de SLI, le 5.5.1983. L'administration de l'éthylamino-3-β-carboline (1 mg/kg) réduit cette latence à 10 secondes, 2 minutes après l'injection. lh30 après l'injection, cette latence est toujours très diminuée (20 secondes). […] Ces résultats sont très différents de ceux de la méthyl-S-carboline dont l'effet convulsivant disparait au bout de 20 minutes chez le Babouin.
Le 88 a montré le même type de résultat. Après 15 secondes de SLI, il est + 3 le 5.5.1983. Après l'administration de 2 mg/kg de N-éthyl carboline, la SLI provoque un stade + 3 au bout de 5 secondes. […] Après 5 heures, la latence est toujours raccourcie (10 secondes).

[9] = system: Babouin photosensible; conditions: comparison; cited from earlier work

SMILES: COC(=O)Nc1cc2c(cn1)[nH]c1ccccc12 [-NHCO2CH3, méthoxycarbonylamino-3-β-carboline]
- IC50 [1]: 71 nM
- IC50 compared with éthylamino-3-β-carboline ([1]; relative to the IC50 of éthylamino-3-β-carboline): presque dix fois plus faible
- 3H-flunitrazépam déplacé ([1]; à haute concentration): 80%
- activité agonistique sur les convulsions induites par le PTZ [2]: dénuée d'activité agonistique
- effect on convulsions induced by méthyl β-carboline [3]: antagonise d'une façon compétitive
- convulsions in mice treated with diazépam + méthyl carbamate [4]: aucun phénomène convulsif
- effect on the sedative effect of diazépam (rotarod) [5]: antagonise l'effet sédatif du diazépam
- effect on the anxiolytic effect of diazépam (conflict test) ([6]; given simultaneously with diazepam 5 mg/kg s.c.): ne bloque pas cet effet anxiolytique du diazépam
- selectivity between brain regions / receptor sub-classes ([7]; cervelet (BZ1) versus cortex and hippocampe (BZ1 and BZ2), souris): sélectivité pour les récepteurs du cervelet
- flunitrazépam tritié déplacé ([7]; cervelet): ~100%
- DE50 (dose effective pour déplacer 50 % du flunitrazépam tritié) ([7]; cervelet, souris): 4 mg/kg
- flunitrazépam tritié déplacé ([7]; cortex): ~75%
- DE50 (dose effective pour déplacer 50 % du flunitrazépam tritié) ([7]; cortex, souris): 5 mg/kg
- flunitrazépam tritié déplacé ([7]; hippocampe): ~75%
- DE50 (dose effective pour déplacer 50 % du flunitrazépam tritié) ([7]; hippocampe, souris): 6 mg/kg

SMILES: CCOC(=O)c1cc2c(cn1)[nH]c1ccccc12 [-CO2CH2CH3, ester éthyliquede l'acide β-carboline-3-carboxylique, reference compound]
- IC50 [1]: 2 nM

SMILES: CS(=O)(=O)Nc1cc2c(cn1)[nH]c1ccccc12 [-NHSO2CH3, méthylsulfonylamino-3-β-carboline]
- IC50 [1]: 62000 nM

SMILES: O=C(Nc1cc2c(cn1)[nH]c1ccccc12)C(F)(F)F [-NHCOCF3, trifluoroacétylamino-3-β-carboline]
- IC50 [1]: 6300 nM

SMILES: CN1C(=O)CN=C(c2ccccc2F)c2cc([N+](=O)[O-])ccc21 [Flunitrazepam, reference compound]
- IC50 [1]: 4 nM

SMILES: CCNc1cc2c(cn1)[nH]c1ccccc12 [-NHCH2CH3, éthylamino-3-β-carboline]
- IC50 [1]: 460 nM
- persistence of the effect on latency ([8]; animal 88, 2 mg/kg): persiste une heure
- latence du stade + 3 sous SLI ([8]; animal 88, 2 mg/kg (15 secondes before treatment)): 5 secondes
- latence du stade + 3 sous SLI ([8]; animal 88, 2 mg/kg, après 5 heures): 10 secondes
- spontaneous seizure after injection ([8]; animal PP 86, 1 mg/kg): crise épileptique tonico-clonique spontanée
- latence du stade + 3 sous SLI ([8]; animal PP 86, 1 mg/kg, 1h30 après l'injection): 20 secondes
- latence du stade + 3 sous SLI ([8]; animal PP 86, 1 mg/kg, 2 minutes après l'injection (30 secondes before treatment)): 10 secondes

SMILES: CCOC(=O)Nc1cc2c(cn1)[nH]c1ccccc12 [-NHCO2CH2CH3, éthoxycarbonylamino-3-β-carboline]
- IC50 [1]: 80 nM

SMILES: COC(=O)c1cc2c(cn1)[nH]c1ccccc12 [méthyl-S-carboline, méthyl β-carbolyne-3-carboxylate]
- time after which the convulsant effect disappears [9]: 20 min

SMILES: O=CNc1cc2c(cn1)[nH]c1ccccc12 [-NHCHO, formylamino-3-β-carboline]
- IC50 [1]: 4700 nM

SMILES: CC(=O)Nc1cc2c(cn1)[nH]c1ccccc12 [-NHCOCH3, acétylamino-3-β-carboline]
- IC50 [1]: 4000 nM

SMILES: Nc1cc2c(cn1)[nH]c1ccccc12 [-NH2, amino-3-β-carboline]
- IC50 [1]: 25000 nM

SMILES: CN1C(=O)CN=C(c2ccccc2)c2cc(Cl)ccc21 [diazepam, reference compound]
- effect on the fall of lever presses during conflict ([6]; 5 mg/kg s.c.): s'oppose à cette baisse des appuis
